The values that follow come from patent US10875876B2, “Cyclized sulfamoylarylamide derivatives and the use thereof as medicaments for the treatment of hepatitis B” (priority 2015, dated 2020).

Molecules are shown by their SMILES. Like-named read-outs stand apart in the source and are kept apart here. Some results are limits rather than exact numbers.

Series [1] in a line: Cytotoxicity in HepG2 cells, Resazurin assay. Particulars: human, HepG2 cells, TOX-HepG2-4 d CC50 (μM), HepG2 cells incubated for 4 days, viability by Resazurin assay. Background: Alamar Blue is a resazurin reagent that responds to reducing activity.
A further series deals with HBV. Nature of the series: anti HBV activity, HepG2.117 cell line, intracellular HBV DNA by realtime PCR. Format: cell-based. The settings on record: HepG2.117 cell line (Tet-off), 3 days of treatment, intracellular HBV DNA quantified by realtime PCR, read-out: HBV-AVE-HepG2.117 EC50. On the procedure: The anti HBV activity was measured using the HepG2.117 cell line, a stable, inducibly HBV producing cell line, which replicates HBV in the absence of doxicycline (Tet-off system). For the antiviral assay, HBV replication was induced, followed by a treatment with serially diluted compound in 96-well plates in duplicate. After 3 days of treatment, the antiviral activity was determined by quantification of intracellular HBV DNA using realtime PCR and an HBV specific primer set and probe.

[2] abbreviates: Hepatitis B virus, HepG2.117, 72 h.

In the case of `CC(NCC(F)(F)F)C1CCc2c(cn(C)c2C(=O)Nc2cc(F)c(F)c(F)c2)S(=O)(=O)N1` (single isomer, unassigned) [Compound 218c, 7-methyl-1,1-dioxo-3-[1-(2,2,2-trifluoroethylamino)ethyl]-N-(3,4,5-trifluorophenyl)-2,3,4,5-tetrahydropyrrolo[3,4-f]thiazepine-6-carboxamide], in series [1], the CC50 (as a rule, the concentration that lowers cell viability or growth by half) at 4 days was more than 25 µM. The EC50 (in general, the concentration giving half of the maximal effect) in the series on HBV amounted to 6 nM.
`C[C@H]1CCc2c(cn(C)c2C(=O)Nc2cc(F)c(F)c(F)c2)S(=O)(=O)N1` (single isomer, unassigned) [Compound 39, (3*S)-3,7-dimethyl-1,1-dioxo-N-(3,4,5-trifluorophenyl)-2,3,4,5-tetrahydropyrrolo[3,4-f]thiazepine-6-carboxamide]: the CC50 at 4 days in series [1] was more than 25 µM. In the series on HBV (setting [2]), the EC50 worked out at 3 nM.
In the same order, the values of `Cc1cccc(CC2(C)COc3c(cn(C)c3C(=O)Nc3ccc(F)c(F)c3)S(=O)(=O)N2)n1` (single isomer, unassigned) [Compound 172a, N-(3,4-difluorophenyl)-3,7-dimethyl-3-[(6-methyl-2-pyridyl)methyl]-1,1-dioxo-2,4-dihydropyrrolo[3,4-b][1,4,5]oxathiazepine-6-carboxamide] are more than 25 µM and 72 nM.
`Cn1cc2c(c1C(=O)Nc1cc(F)c(F)c(F)c1)C=CC1(COC1)NS2(=O)=O` [Compound 143, 7-methyl-1,1-dioxo-N-(3,4,5-trifluorophenyl)spiro[2H-pyrrolo[3,4-f]thiazepine-3,3′-oxetane]-6-carboxamide] returned a CC50 at 4 days in series [1] of more than 25 µM. The EC50 in the series with HBV (setting [2]) is 24 nM.
The corresponding values for `Cn1cc2c(c1C(=O)Nc1ccc(F)c(Cl)c1)OCC(C)(Cc1ccc(Cl)nc1)NS2(=O)=O` (centres unmarked) [Compound 198, N-(3-chloro-4-fluoro-phenyl)-3-[(6-chloro-3-pyridyl)methyl]-3,7-dimethyl-1,1-dioxo-2,4-dihydropyrrolo[3,4-b][1,4,5]oxathiazepine-6-carboxamide] are more than 25 µM and 11 nM.
In the same order, the values of `Cn1cc2c(c1C(=O)Nc1ccc(F)c(F)c1)OCC(C(O)c1ccccn1)NS2(=O)=O` (centres unmarked) [Compound 141a, N-(3,4-difluorophenyl)-3-[hydroxy(2-pyridyl)methyl]-7-methyl-1,1-dioxo-3,4-dihydro-2H-pyrrolo[3,4-b][1,4,5]oxathiazepine-6-carboxamide] are more than 25 µM and 30 nM.
For the molecule `C[C@@H](O)[C@H]1CCc2c(cn(C)c2C(=O)Nc2ccc(F)c(F)c2)S(=O)(=O)N1` [Compound 70, (3R)—N-(3,4-difluorophenyl)-3-[(1R)-1-hydroxyethyl]-7-methyl-1,1-dioxo-2,3,4,5-tetrahydropyrrolo[3,4-f]thiazepine-6-carboxamide], in series [1], the CC50 at 4 days was more than 25 µM. Besides, in the series with HBV (setting [2]), the EC50 was found to be 14 nM.
Consider `Cn1cc2c(c1C(=O)Nc1ccc(F)c(F)c1)OCC1(CC1)NS2(=O)=O` [Compound 19, N-(3,4-difluorophenyl)-7-methyl-1,1-dioxo-spiro[2,4-dihydropyrrolo-[3,4-b][1,4,5]oxathiazepine-3,1′-cyclopropane]-6-carboxamide], for which, in series [1], the CC50 at 4 days is more than 25 µM. In the series with HBV (setting [2]), the EC50 stood at 190 nM.
`Cn1cc2c(c1C(=O)Nc1ccc(F)c(F)c1)OCC1(CCN(Cc3ccccc3)C1)NS2(=O)=O` (centres unmarked) [Compound 216, 1′-benzyl-N-(3,4-difluorophenyl)-7-methyl-1,1-dioxo-spiro[2,4-dihydropyrrolo[3,4-b][1,4,5]oxathiazepine-3,3′-pyrrolidine]-6-carboxamide] displayed a CC50 at 4 days in series [1] of more than 25 µM. Moreover, the EC50 with HBV (setting [2]) stood at 34 nM.
The corresponding values for `Cn1cc2c(c1C(=O)Nc1ccc(F)c(C#N)c1)OC[C@H](Cc1cccnc1)NS2(=O)=O` [Compound 71, (3S)—N-(3-cyano-4-fluoro-phenyl)-7-methyl-1,1-dioxo-3-(3-pyridylmethyl)-3,4-dihydro-2H-pyrrolo[3,4-b][1,4,5]oxathiazepine-6-carboxamide] are more than 25 µM and 3 nM.
In the same order, the values of `C[C@H](O)[C@H]1CCc2c(cn(C)c2C(=O)Nc2ccc(F)c(C#N)c2F)S(=O)(=O)N1` [Compound 159, (3R)—N-(3-cyano-2,4-difluoro-phenyl)-3-[(1S)-1-hydroxyethyl]-7-methyl-1,1-dioxo-2,3,4,5-tetrahydropyrrolo[3,4-f]thiazepine-6-carboxamide] are more than 25 µM and 14 nM.
Regarding `CN1CCC(C2COc3c(cn(C)c3C(=O)Nc3ccc(F)c(F)c3)S(=O)(=O)N2)CC1` (centres unmarked) [Compound 76, N-(3,4-difluorophenyl)-7-methyl-3-(1-methyl-4-piperidyl)-1,1-dioxo-3,4-dihydro-2H-pyrrolo[3,4-b][1,4,5]oxathiazepine-6-carboxamide], in series [1], the CC50 at 4 days was more than 25 µM. The EC50 with HBV (setting [2]) amounted to 220 nM.
Turning to `CCC(O)[C@H]1COc2c(cn(C)c2C(=O)Nc2ccc(F)c(C(F)F)c2)S(=O)(=O)N1` (stereo partly drawn) [Compound 124a, (3R)—N-[3-(difluoromethyl)-4-fluoro-phenyl]-3-(1-hydroxypropyl)-7-methyl-1,1-dioxo-3,4-dihydro-2H-pyrrolo[3,4-b][1,4,5]oxathiazepine-6-carboxamide], the CC50 at 4 days in series [1] is more than 25 µM. Further, the EC50 in the series on HBV (setting [2]) stood at 5 nM.
In the same order, the values of `Cn1cc2c(c1C(=O)Nc1ccc(F)c(F)c1)OCC(C(=O)O)NS2(=O)=O` (centres unmarked) [compound 242] are more than 25 µM and more than 130 nM.
On to `CC(C)C1CCc2c(cn(C)c2C(=O)Nc2ccc(F)c(C#N)c2)S(=O)(=O)N1` (centres unmarked) [Compound 85, N-(3-cyano-4-fluoro-phenyl)-3-isopropyl-7-methyl-1,1-dioxo-2,3,4,5-tetrahydropyrrolo[3,4-f]thiazepine-6-carboxamide], for which the CC50 at 4 days in series [1] was more than 25 µM. For the same molecule, the EC50 in the series with HBV (setting [2]) came out at 7 nM.
The corresponding values for `Cc1ccc(NC(=O)c2c(F)ccc3c2OC[C@@H](C(C)C)NS3(=O)=O)cc1F` [Compound 46, (3R)-7-fluoro-N-(3-fluoro-4-methyl-phenyl)-3-isopropyl-1,1-dioxo-3,4-dihydro-2H-5,1λ^6,2-benzoxathiazepine-6-carboxamide] are more than 25 µM and 330 nM.
In the same order, the values of `CCC(O)[C@H]1COc2c(cn(C)c2C(=O)Nc2ccc(F)c(F)c2)S(=O)(=O)N1` (stereo partly drawn) [Compound 130a, (3R)—N-(3,4-difluorophenyl)-3-(1-hydroxypropyl)-7-methyl-1,1-dioxo-3,4-dihydro-2H-pyrrolo[3,4-b][1,4,5]oxathiazepine-6-carboxamide] are more than 25 µM and 18 nM.
`Cn1cc2c(c1C(=O)Nc1ccc(F)c(F)c1)OC[C@H](C(C)(C)O)NS2(=O)=O` [Compound 93, (3R)—N-(3,4-difluorophenyl)-3-(1-hydroxy-1-methyl-ethyl)-7-methyl-1,1-dioxo-3,4-dihydro-2H-pyrrolo[3,4-b][1,4,5]oxathiazepine-6-carboxamide] displayed a CC50 at 4 days in series [1] of more than 25 µM. Also, in the series on HBV (setting [2]), the EC50 came out at 12 nM.
In turn, `CC(C)C(O)C1COc2c(cn(C)c2C(=O)Nc2ccc(F)c(F)c2)S(=O)(=O)N1` (single isomer, unassigned) [Compound 114a, N-(3,4-difluorophenyl)-3-(1-hydroxy-2-methyl-propyl)-7-methyl-1,1-dioxo-3,4-dihydro-2H-pyrrolo[3,4-b][1,4,5]oxathiazepine-6-carboxamide] gave a CC50 at 4 days in series [1] of more than 25 µM. In the series with HBV, the EC50 came out at 22 nM.
In series [1], `CC(C)C1CCc2c(cn(C)c2C(=O)Nc2ccc(F)c(F)c2)S(=O)(=O)N1` (centres unmarked) [Compound 81, N-(3,4-difluorophenyl)-3-isopropyl-7-methyl-1,1-dioxo-2,3,4,5-tetrahydropyrrolo[3,4-f]thiazepine-6-carboxamide] showed a CC50 at 4 days of more than 25 µM. Further, the EC50 in the series on HBV (setting [2]) was 2 nM.
The corresponding values for `Cn1cc2c(c1C(=O)Nc1ccc(F)c(F)c1)CCC(CO)(CO)NS2(=O)=O` [Compound 201, N-(3,4-difluorophenyl)-3,3-bis(hydroxymethyl)-7-methyl-1,1-dioxo-4,5-dihydro-2H-pyrrolo[3,4-f]thiazepine-6-carboxamide] are more than 25 µM and 110 nM.
As to `Cn1cc2c(c1C(=O)Nc1ccc(F)c(F)c1)OCC(C1CCN(CC(F)(F)F)CC1)NS2(=O)=O` (centres unmarked) [Compound 78, N-(3,4-difluorophenyl)-7-methyl-1,1-dioxo-3-[1-(2,2,2-trifluoroethyl)-4-piperidyl]-3,4-dihydro-2H-pyrrolo[3,4-b][1,4,5]oxathiazepine-6-carboxamide], the CC50 at 4 days in series [1] is more than 25 µM. Besides, the EC50 with HBV (setting [2]) was found to be 56 nM.
`C[C@@H]1Oc2c(cn(C)c2C(=O)Nc2ccnc(C(F)F)c2)S(=O)(=O)N[C@@H]1CO` [compound 233] returned a CC50 at 4 days in series [1] of more than 25 µM. Further, the EC50 in the series on HBV (setting [2]) is more than 500 nM.
Regarding `C[C@@H](O)[C@H]1C=Cc2c(cn(C)c2C(=O)Nc2ccc(F)c(F)c2)S(=O)(=O)N1` [Compound 69, (3R)—N-(3,4-difluorophenyl)-3-[(1R)-1-hydroxyethyl]-7-methyl-1,1-dioxo-2,3-dihydropyrrolo[3,4-f]thiazepine-6-carboxamide], in series [1], the CC50 at 4 days is more than 25 µM. Moreover, in the series on HBV (setting [2]), the EC50 stood at 33 nM.
`CCC(O)[C@H]1COc2c(cn(C)c2C(=O)Nc2ccc(F)c(C#N)c2)S(=O)(=O)N1` (stereo partly drawn) [Compound 122a, (3R)—N-(3-cyano-4-fluoro-phenyl)-3-(1-hydroxypropyl)-7-methyl-1,1-dioxo-3,4-dihydro-2H-pyrrolo[3,4-b][1,4,5]oxathiazepine-6-carboxamide] came in with a CC50 at 4 days in series [1] of more than 25 µM. Moreover, the EC50 in the series with HBV (setting [2]) came to 12 nM.
